What was measured:
[1] = Plasma protein binding, Rapid Equilibrium Dialysis; type: in vitro ADME; details: read-out: Plasma protein binding % Fraction bound (converted)
Protocol: Data from a plasma protein binding study can inform about distribution into tissues of the body and reduction in the amount of drug available to be metabolized or cleared from the body. The measurement of plasma protein binding was performed using a Rapid Equilibrium Dialysis device; 11a and 11b compounds reported a percent of fraction bound around 90%. For the microsomal stability assay, human liver microsomes and NADPH cofactor were used to assess phase I oxidation by cytochrome P450 and flavin monooxygenases. The intrinsic clearance calculated from the microsomal stability assay indicated the medium category for both derivatives (Table 3).

CEM-DNR = experiment: MTS cytotoxicity assay, 72 h, CEM-DNR; type: cell-based; details: Homo sapiens
[2] = tested on: Gli1 protein in DU-145 cells; experiment: Western blot of Gli1 in DU-145 cells, 24 h; type: cell-based, human; details: DU-145, 24 h, immunoblot
Protocol: In order to verify that compounds 11a and 11b inhibit the proliferation of A549 and DU-145 through Hh inhibition, we monitored the expression of Hh target genes in these cell lines (Figure 2). […] The decreased protein expression of Gli1 targets Cyclin D1, N-Myc, and Bcl-2 strongly indicates inhibition of its transcriptional activity, and their downregulation correlates with the data obtained by the U-87 MG-Gli-FLuc reporter assay. Importantly, these proteins are involved in cell cycle progression, proliferation, and survival. N-Myc amplification or deregulation of transcription, stability, and degradation is associated with many malignancies,[34] and the observed downregulation induced by 11a and 11b may reduce its oncogenic effect.
Figure 2 Effect of compounds 11a and 11b on the protein expression of the Gli1 transcription factor and its transcriptional targets in A549 (A) and DU145 (B) cells following 24 h of incubation. […]
Cells were washed with PBS and lysed on ice in 200 μL of RIPA (Radioimmunoprecipitation Assay) buffer for 30 min. Then, cell lysates were clarified by centrifugation (15000 rpm, 20 min, 4 °C), and the protein concentration in the collected supernatants was determined using a BCA method (Bicinchoninic Acid test). […] Luminescence signal detection was performed by using an Odyssey FC instrument (LI-COR Biosciences).

MRC-5 lung fibroblasts = experiment: MTS cytotoxicity assay, 72 h, MRC-5 fibroblasts; type: cell-based, human; details: Homo sapiens, MRC5, 72 h, normal fibroblasts
Procedure, shortened: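 MTS read-out (A490 after 1–4 h with MTS/PMS) following 72 h continuous compound treatment. Concentrations spanned 50–0.0975 μmol/L in twofold steps; IC50 values calculated from the curves.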

Row | SMILES | fraction unbound [1] | IC50 (CEM-DNR; Table 1) [µM] | IC50 (CEM-DNR; full Table S1) [µM] | Endogenous Gli1 protein level [2] | IC50 (MRC-5 lung fibroblasts; Table 1) [µM] | IC50 (MRC-5 lung fibroblasts; full Table S1) [µM]
1 | C=C(C)[C@@H]1CC[C@]2(C(=O)O)CC[C@]3(C)C(CCC4[C@@]5(C)C=C(c6ccoc6)C(=O)C(C)(C)C5CC[C@]43C)C12 (stereo partly drawn) [Compound 11b, 2-(Furan-3-yl)-3-oxolupa-1,20(29)-dien-28-oic acid] | ~0.1 | 22 | 21.8 | inhibit the endogenous Gli1 protein level in a dose-dependent manner | 24 | 23.9
2 | C=C(C)[C@@H]1CC[C@]2(C(=O)O)CC[C@]3(C)C(CCC4[C@@]5(C)C=C(c6ccco6)C(=O)C(C)(C)C5CC[C@]43C)C12 (stereo partly drawn) [Compound 11a, 2-(Furan-2-yl)-3-oxolupa-1,20(29)-dien-28-oic acid] | ~0.1 | 15 | 15.3 | inhibit the endogenous Gli1 protein level in a dose-dependent manner | 27 | 26.8
